Where a name gives a salt, the structure may show the parent alone.
Biological target: T1, human A3AR (Homo sapiens, UniProt P0DMS8)
T1 construct: expressed in transfected cells
T1 sequence (P0DMS8 1-318): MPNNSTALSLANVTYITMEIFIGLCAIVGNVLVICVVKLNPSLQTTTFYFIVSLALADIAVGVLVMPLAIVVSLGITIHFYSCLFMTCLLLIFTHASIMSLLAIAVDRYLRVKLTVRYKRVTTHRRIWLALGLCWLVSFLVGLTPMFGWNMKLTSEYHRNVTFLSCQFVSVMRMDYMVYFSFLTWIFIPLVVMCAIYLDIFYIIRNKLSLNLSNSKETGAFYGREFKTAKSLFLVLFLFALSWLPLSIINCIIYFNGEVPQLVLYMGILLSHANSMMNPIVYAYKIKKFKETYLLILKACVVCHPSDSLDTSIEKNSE
Assay: LOPAC library primary screen: single concentration (10 μM) inhibition of 25 nM CA200645 binding, PHERAstar FS
Details: not given

Compound | % 25 nM CA200645 binding
CCN(CC)CCCCNc1ncc2cc(-c3c(Cl)cccc3Cl)c(NC(=O)NC(C)(C)C)nc2n1 [PD-161570] | 90.7 ± 9.1%
CCN(CC)CCOc1ccc(Nc2ncc3cc(-c4c(Cl)cccc4Cl)c(=O)n(C)c3n2)cc1.O [PD-166285 hydrate] | 108.1 ± 4.5%
COc1cc(OC)cc(-c2cc3cnc(N)nc3nc2NC(=O)NC(C)(C)C)c1 [PD-166866] | 34.3 ± 9.7%
CS(=O)(=O)c1cccc(CNc2nc(Nc3ccc4c(c3)CCC(=O)N4)ncc2C(F)(F)F)c1 [PF-573228] | 54.7 ± 30.2%
CCc1cncnc1N1CCN(Cc2nc3ccc(C(F)(F)F)cc3[nH]2)CC1 [PF-4708671] | 99.2 ± 13.5%
CCC(C)N(C)C(=O)c1cc2ccccc2c(-c2ccccc2Cl)n1 (stereo not shown) [PK 11195] | 93.2 ± 6.1%
Nc1nc2c(ncn2CCOCP(=O)(O)O)c(=O)[nH]1 [PMEG hydrate] | 97.6 ± 14.8%
O=C(N[C@H]1CN2CCC1CC2)c1ccc(Cl)cc1 [PNU-282987] | 78.9 ± 33.0%
Cc1nc(N=Nc2ccc(S(=O)(=O)O)cc2S(=O)(=O)O)c(COP(=O)(O)O)c(C=O)c1O [PPADS] | 106.1 ± 11.3%
Cc1nc(N=Nc2cc(S(=O)(=O)[O-])c3cc([N+](=O)[O-])cc(S(=O)(=O)[O-])c3c2)c(COP(=O)([O-])[O-])c(C=O)c1O.[Na+].[Na+].[Na+].[Na+] [PPNDS tetrasodium] | 100.4 ± 12.5%
O=C(OCCN1CCOCC1)C1(c2ccccc2)CCCCC1 [PRE-084] | 100.3 ± 14.3%
Cc1nc2n(c(=O)c1CCN1CCC(c3noc4cc(F)ccc34)CC1)CCCC2O (stereo not shown) [Paliperidone] | 94.9 ± 1.6%
COc1ccc(Cc2nccc3cc(OC)c(OC)cc23)cc1OC [Papaverine hydrochloride] | 86.6 ± 22.0%
C#CCN(C)Cc1ccccc1 [Pargyline hydrochloride] | 102.9 ± 12.8%
NC[C@@H]1O[C@H](O[C@H]2[C@@H](O)[C@H](O[C@@H]3[C@@H](O)[C@H](N)C[C@H](N)[C@H]3O[C@H]3O[C@H](CO)[C@@H](O)[C@H](O)[C@H]3N)O[C@@H]2CO)[C@H](N)[C@@H](O)[C@@H]1O [Paromomycin sulfate] | 106.3 ± 7.8%
Fc1ccc([C@@H]2CCNC[C@H]2COc2ccc3c(c2)OCO3)cc1 [Paroxetine hydrochloride hemihydrate] | 97.2 ± 4.3%
N=C(N)c1ccc(OCCCCCOc2ccc(C(=N)N)cc2)cc1 [Pentamidine isethionate] | 100.3 ± 6.3%
C[N+]1(CCCCC[N+]2(C)CCCC2)CCCC1.O=C([O-])C(O)C(O)C(=O)O.O=C([O-])C(O)C(O)C(=O)O [Pentolinium di[L(+)-tartrate]] | 106.3 ± 2.7%
CC(=O)CCCCn1c(=O)c2c(ncn2C)n(C)c1=O [Pentoxifylline] | 81.9 ± 17.4%
C1CCc2nnnn2CC1 [Pentylenetetrazole] | 95.4 ± 8.7%
CCCN1C[C@H](CSC)C[C@@H]2c3cccc4[nH]cc(c34)C[C@H]21 [Pergolide methanesulfonate] | 82.8 ± 15.4%
OCCN1CCN(CCCN2c3ccccc3Sc3ccc(Cl)cc32)CC1 [Perphenazine] | 88.8 ± 23.6%
NCC(CP(=O)(O)O)c1ccc(Cl)cc1 (stereo not shown) [Phaclofen] | 107.2 ± 18.9%
NNCCc1ccccc1 [Phenelzine sulfate] | 99.4 ± 7.6%

Compound | % 25 nM CA200645 binding
CN(C)CCC(c1ccccc1)c1ccccn1 (stereo not shown) [Pheniramine maleate] | 91.5 ± 14.9%
CN1CC[C@@]2(C)c3cc(OC(=O)Nc4ccccc4)ccc3N(C)[C@@H]12 [Phenserine] | 81.1 ± 29.6%
Cc1ccc(N(CC2=NCCN2)c2cccc(O)c2)cc1 [Phentolamine mesylate] | 98.9 ± 10.7%
CNC[C@H](O)c1cccc(O)c1 [Phenylephrine hydrochloride] | 102.2 ± 12.7%
O=C(CCc1ccc(O)cc1)c1c(O)cc(O)cc1O [Phloretin] | 67.7 ± 15.2%
CCCCCCCCCCCCCC(=O)O[C@@H]1[C@@H](C)[C@@]2(O)[C@@H](C=C(CO)C[C@]3(O)C(=O)C(C)=C[C@@H]23)[C@@H]2C(C)(C)[C@]12OC(C)=O [Phorbol 12-myristate 13-acetate] | 80.3 ± 5.6%
C[C@@H]1O[C@@H]1P(=O)(O)O [Phosphomycin disodium] | 98.9 ± 12.7%
O=C(O)CP(=O)(O)O [Phosphonoacetic acid] | 103.4 ± 12.3%
Oc1cc(O)cc(/C=C/c2ccc(O)c(O)c2)c1 [Piceatannol] | 79.1 ± 22.1%
COc1ccc(C(=O)NCc2cccnc2)cc1C(=O)NCc1cccnc1 [Picotamide] | 109.0 ± 15.4%
NS(=O)(=O)C#Cc1ccccc1 [Pifithrin-mu] | 92.3 ± 34.4%
CC[C@@H]1C(=O)OC[C@@H]1Cc1cncn1C [Pilocarpine nitrate] | 92.9 ± 2.4%
O=c1[nH]c2ccccc2n1C1CCN(CCCC(c2ccc(F)cc2)c2ccc(F)cc2)CC1 [Pimozide] | 78.2 ± 10.9%
CC(N/C(=N\C#N)Nc1ccncc1)C(C)(C)C (stereo not shown) [Pinacidil] | 105.1 ± 8.3%
CC(C)NCC(O)COc1cccc2[nH]ccc12 (stereo not shown) [Pindolol] | 84.7 ± 11.8%
Clc1ccc2c(N3CCN(CCCN4CCN(c5ccnc6cc(Cl)ccc56)CC4)CC3)ccnc2c1 [Piperaquine tetraphosphate tetrahydrate] | 96.8 ± 7.2%
NC(=O)CN1CCCC1=O [Piracetam] | 110.0 ± 4.3%
Cc1ccc(=O)n(-c2ccccc2)c1 [Pirfenidone] | 96.4 ± 15.8%
O=C(O)/C=C\C(=O)O.c1cnc(N2CCN(Cc3ccc4c(c3)OCO4)CC2)nc1 [Piribedil maleate] | 97.8 ± 1.7%
CN1C(C(=O)Nc2ccccn2)=C(O)c2ccccc2S1(=O)=O [Piroxicam] | 101.0 ± 12.2%
COc1cc([C@@H]2c3cc4c(cc3[C@H](O)[C@H]3COC(=O)[C@H]23)OCO4)cc(OC)c1OC [Podophyllotoxin] | 97.7 ± 17.3%
O=C(C1CCCCC1)N1CC(=O)N2CCc3ccccc3C2C1 (stereo not shown) [Praziquantel] | 100.5 ± 15.0%
COc1cc2nc(N3CCN(C(=O)c4ccco4)CC3)nc(N)c2cc1OC [Prazosin hydrochloride] | 109.3 ± 23.7%
CC(=O)[C@H]1CC[C@H]2[C@@H]3CC=C4C[C@@H](OS(=O)(=O)[O-])CC[C@]4(C)[C@H]3CC[C@]12C.[Na+] [Pregnenolone sulfate sodium] | 100.9 ± 23.1%

Same assay, conditions: % of control wells (1% DMSO and 25 nM CA200645); compounds at 10 µM; whole live cells expressing the A3AR; mean ± SD, three experiments in duplicate

% 25 nM CA200645 binding | Compound
98.5 ± 15.3% | C=C1C(=O)O[C@H]2[C@H]1CC/C(C)=C/CC[C@@]1(C)O[C@@H]21 [Parthenolide]
100.4 ± 3.8% | NC(=Nc1ccccc1)NC(=O)c1nc(Cl)c(N)nc1N [Phenamil methanesulfonate]
88.6 ± 5.4% | Cc1nc2ccccn2c(=O)c1CCN1CCC(C(=O)c2ccc(F)cc2)CC1 [Pirenperone]

Same assay, conditions: compounds tested at 10 µM; % of control wells (1% DMSO and 25 nM CA200645); whole live cells expressing the A3AR; mean ± SD, three experiments in duplicate

Compound | % 25 nM CA200645 binding
CC(C)C[C@H](NP(=O)([O-])O[C@H]1O[C@H](C)[C@@H](O)[C@H](O)[C@@H]1O)C(=O)N[C@@H](Cc1c[nH]c2ccccc12)C(=O)[O-].[Na+].[Na+] [Phosphoramidon disodium] | 101.2 ± 7.1%
